According to patent publication US11021444B2, “Antiviral compounds” (priority 2013, dated 2021):
Read-outs that look alike come from different tables or passages of the source.

Key:
RSV replicon = test: microbe, parasite or virus in culture; format: cell-based; details: human respiratory syncytial virus, read-out: EC50, the concentration of the drug required for reducing RSV replicon RNA by 50%
[1] = tested on: Respiratory Syncytial Virus (RSV) long strain; test: microbe, parasite or virus in culture; format: cell-based; details: human respiratory syncytial virus, Tables A and B list compounds by EC50 band
How it was run: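 HEp-2 cells infected with 100 TCID50 virus per well, compounds in duplicate, 9-point 1/3 dilutions from 100 μM or 1 μM, 1% DMSO. After 5 days at 37 °C, cell viability (CPE protection) read by CCK-8 absorbance at 450 nm, 630 nm background.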

[2] = Cytotoxicity Determination (CCK-8, without addition of virus); format: cell-based; details: human, 50% cytotoxicity concentration (CC50)
How it was run: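 HEp-2 cells were seeded at 1,500 cells/well one day before compound addition. Compounds were tested without virus in duplicate over 7 points from 100 μM in 1/2 steps, with 1% final DMSO, 5 days at 37 °C, 5% CO2. Viability was read by CCK-8 after 3-4 hours.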

recombinant RSV complex = recombinant RSV complex (Human respiratory syncytial virus A, UniProt P28887); test: RSV Polymerase Inhibition Assay; format: biochemical
How it was run: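 10 nM recombinant RSV polymerase complex in Tris-HCl pH 7.5, 6 mM MgCl2 with RNA oligonucleotide template and radionucleotides, incubated 2 h at 30 °C with increasing inhibitor concentrations. Reaction stopped with EDTA; radiolabeled RNA product counted by scintillation.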

[3] = HEp-2, 120 h, read-out: 50% effective concentration (EC50), HEp-2 cells infected with RSV long strain, 5 days, CCK-8 readout
[4] = 120 h, read-out: 50% effective concentration (EC50), HEp-2 cells infected with RSV long strain, 5 days, CCK-8 readout

recombinant RSV complex, sequence (P28887 whole entry): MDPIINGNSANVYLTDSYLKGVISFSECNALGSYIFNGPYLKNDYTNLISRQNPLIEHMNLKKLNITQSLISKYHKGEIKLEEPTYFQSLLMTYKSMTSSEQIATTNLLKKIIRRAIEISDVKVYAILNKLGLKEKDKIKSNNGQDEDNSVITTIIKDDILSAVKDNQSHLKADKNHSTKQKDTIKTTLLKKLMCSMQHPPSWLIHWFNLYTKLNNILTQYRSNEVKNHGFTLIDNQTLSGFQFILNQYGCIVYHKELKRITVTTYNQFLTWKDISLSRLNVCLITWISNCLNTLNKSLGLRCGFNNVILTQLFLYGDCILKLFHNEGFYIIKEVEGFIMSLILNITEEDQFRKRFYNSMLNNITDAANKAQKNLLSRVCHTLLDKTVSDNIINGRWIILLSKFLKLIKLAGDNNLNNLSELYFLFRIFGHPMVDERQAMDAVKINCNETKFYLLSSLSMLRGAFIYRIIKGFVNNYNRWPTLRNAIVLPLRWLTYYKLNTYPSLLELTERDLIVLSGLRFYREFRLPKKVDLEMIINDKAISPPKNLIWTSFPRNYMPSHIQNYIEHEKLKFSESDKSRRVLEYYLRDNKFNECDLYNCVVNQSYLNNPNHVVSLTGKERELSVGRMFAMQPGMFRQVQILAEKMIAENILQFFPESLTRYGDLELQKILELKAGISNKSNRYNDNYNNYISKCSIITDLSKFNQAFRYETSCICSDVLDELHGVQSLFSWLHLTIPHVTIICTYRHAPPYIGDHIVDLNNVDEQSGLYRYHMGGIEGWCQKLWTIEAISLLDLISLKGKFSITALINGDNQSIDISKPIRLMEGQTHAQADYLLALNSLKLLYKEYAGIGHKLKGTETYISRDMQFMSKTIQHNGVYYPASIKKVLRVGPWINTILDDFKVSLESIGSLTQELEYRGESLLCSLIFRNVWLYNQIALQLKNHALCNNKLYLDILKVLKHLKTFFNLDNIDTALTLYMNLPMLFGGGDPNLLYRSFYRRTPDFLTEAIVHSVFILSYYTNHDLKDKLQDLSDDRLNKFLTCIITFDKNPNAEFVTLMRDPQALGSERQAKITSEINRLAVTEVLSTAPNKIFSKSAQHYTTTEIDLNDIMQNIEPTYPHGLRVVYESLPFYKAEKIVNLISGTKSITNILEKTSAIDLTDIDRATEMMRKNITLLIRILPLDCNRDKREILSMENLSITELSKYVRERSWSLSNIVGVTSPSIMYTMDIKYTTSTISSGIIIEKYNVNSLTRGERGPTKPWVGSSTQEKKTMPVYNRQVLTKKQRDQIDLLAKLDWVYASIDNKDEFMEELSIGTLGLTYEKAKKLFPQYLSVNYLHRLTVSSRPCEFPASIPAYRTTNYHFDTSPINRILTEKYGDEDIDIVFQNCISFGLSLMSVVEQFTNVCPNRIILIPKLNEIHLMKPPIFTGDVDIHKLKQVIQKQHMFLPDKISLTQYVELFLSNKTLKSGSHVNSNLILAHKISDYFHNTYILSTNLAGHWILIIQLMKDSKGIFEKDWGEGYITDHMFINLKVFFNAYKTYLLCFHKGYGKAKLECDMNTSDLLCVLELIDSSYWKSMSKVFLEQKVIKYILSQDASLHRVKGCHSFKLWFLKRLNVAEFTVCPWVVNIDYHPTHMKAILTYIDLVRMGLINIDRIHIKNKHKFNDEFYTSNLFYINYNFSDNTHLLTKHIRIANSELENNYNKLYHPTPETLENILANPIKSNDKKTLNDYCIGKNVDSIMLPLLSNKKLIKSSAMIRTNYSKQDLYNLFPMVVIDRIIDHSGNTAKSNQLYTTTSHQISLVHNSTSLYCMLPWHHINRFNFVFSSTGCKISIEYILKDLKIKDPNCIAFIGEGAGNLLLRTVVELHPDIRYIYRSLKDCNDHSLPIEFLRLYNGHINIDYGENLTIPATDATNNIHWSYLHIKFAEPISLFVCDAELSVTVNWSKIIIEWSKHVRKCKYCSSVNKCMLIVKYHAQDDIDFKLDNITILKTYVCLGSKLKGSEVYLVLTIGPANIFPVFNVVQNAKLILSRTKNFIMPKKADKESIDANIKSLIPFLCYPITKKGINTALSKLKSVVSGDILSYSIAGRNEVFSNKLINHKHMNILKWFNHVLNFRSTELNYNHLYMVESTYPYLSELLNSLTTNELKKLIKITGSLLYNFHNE
recombinant RSV complex, sequence (P03421 whole entry, further chain): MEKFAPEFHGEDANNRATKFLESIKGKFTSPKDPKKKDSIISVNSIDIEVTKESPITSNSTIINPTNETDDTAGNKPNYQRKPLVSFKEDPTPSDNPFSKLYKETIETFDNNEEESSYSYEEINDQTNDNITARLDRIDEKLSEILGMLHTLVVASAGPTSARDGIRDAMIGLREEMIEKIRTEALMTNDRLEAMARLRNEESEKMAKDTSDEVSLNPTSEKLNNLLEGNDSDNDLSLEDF

Row | Structure (SMILES) | EC50 (RSV replicon) [nM] | EC50 [1, 3] [nM] | CC50 at 5 days [2] [nM] | IC50 (recombinant RSV complex) [nM] | EC50 [1, 4] [nM]
1 | CNC(C)(C)c1cc(-c2ccc(F)c(Cl)c2)nc(C(O)(CNC(=O)c2ccc(OCCO)c(OC)c2)C(F)(F)F)c1 (stereo not shown) [Compound 491] | < 1000 | < 1000 | 10000 to 100000 | < 1000 | –
2 | CC(C)(N)c1cc(-c2ccc(F)cc2)nc(C(O)(CNC(=O)c2ccc3c(c2)CC(=O)N3)C(F)(F)F)c1 (stereo not shown) [Compound 571] | < 1000 | < 1000 | 10000 to 100000 | < 1000 | –
3 | COc1ccc(C(O)(CO)CNC(=O)c2cc(OC)c3ncccc3c2)nc1-c1ccc(F)c(Cl)c1 (stereo not shown) [Compound 453] | < 1000 | < 1000 | 10000 to 100000 | < 1000 | –
4 | COc1cc(C(=O)NCC(O)(c2cc(C(C)(C)N)cc(-c3ccc(F)c(Cl)c3)n2)C(F)(F)F)ccc1OCS(N)(=O)=O (stereo not shown) [Compound 637] | < 1000 | 1000 to 50000 | 10000 to 100000 | < 1000 | –
5 | COCC(C)(N)c1cc(-c2ccc(F)c(Cl)c2)nc(C(O)(CNC(=O)c2ccc(OC3CC3)c(OC)c2)C(F)(F)F)c1 (stereo not shown) [Compound 535] | < 1000 | < 1000 | 10000 to 100000 | < 1000 | –
6 | COc1cc(C(=O)NCC(O)(Cn2ccnc2)c2ccc(OC)c(-c3ccc(F)c(Cl)c3)n2)ccc1OCCO (stereo not shown) [Compound 191] | < 1000 | < 1000 | > 100000 | < 1000 | –
7 | COc1cc(C(=O)NCC(O)(CO)c2ccc(OC)c(-c3ccc(F)c(Cl)c3)n2)ccc1OC1CC1 (stereo not shown) [Compound 384] | < 1000 | < 1000 | 10000 to 100000 | < 1000 | –
8 | COc1cc(C(=O)NCC(O)(c2cc([C@@]3(C)CCN3)cc(-c3ccc(F)c(Cl)c3)n2)C(F)(F)F)ccc1OC1CC1 (stereo partly shown) [Compound 563] | < 1000 | < 1000 | 10000 to 100000 | < 1000 | –
9 | COc1cc(C(=O)NCC(C)(O)c2ccc(OC)c(-c3ccc(F)c(Cl)c3)n2)ccc1OC(C)(C)C (stereo not shown) [Compound 371] | < 1000 | < 1000 | 10000 to 100000 | < 1000 | –
10 | COc1cc(C(=O)NCC(O)(c2ccc(OC)c(-c3ccc(F)c(Cl)c3)n2)C(F)(F)F)ccc1OC1CCC1 (stereo not shown) [Compound 245] | < 1000 | < 1000 | > 100000 | < 1000 | –
11 | COc1cc(C(=O)NCC(O)(c2cc([C@]3(C)CCN3)cc(-c3ccc(F)cc3)n2)C(F)(F)F)ccc1OCCO (stereo partly shown) [Compound 650] | < 1000 | – | 10000 to 100000 | < 1000 | < 1000
12 | COc1cc(C(=O)NCC(O)(c2cc(C(C)(C)N)cc(-c3ccc(F)c(Cl)c3)n2)C(F)(F)F)ccc1OC[C@@H](C)O (stereo partly shown) [Compound 317] | < 1000 | < 1000 | 10000 to 100000 | < 1000 | –
13 | COc1cc(C(=O)OCC(O)(CN)c2ccc(OC)c(-c3ccc(F)c(Cl)c3)n2)ccc1OC1CC1 (stereo not shown) [Compound 383] | < 1000 | < 1000 | 10000 to 100000 | < 1000 | –
14 | CNC(C)(C)c1cc(-c2ccc(F)c(Cl)c2)nc(C(O)(CNC(=O)c2ccc(OCC(N)=O)c(OC)c2)C(F)(F)F)c1 (stereo not shown) [Compound 487] | < 1000 | < 1000 | 10000 to 100000 | < 1000 | –
15 | COc1cc(C(=O)NCC(C)(O)c2ccc(OC)c(-c3ccc(F)c(Br)c3)n2)ccc1OCCF (racemic) [Compound 118] | < 1000 | < 1000 | 10000 to 100000 | < 1000 | –
16 | COc1cc(C(=O)NCC(=O)c2cc3c(c(-c4ccc(F)c(Cl)c4)n2)OCCC3)ccc1OCCF [Compound 303] | < 1000 | < 1000 | > 100000 | < 1000 | –

Row | Structure (SMILES) | EC50 (RSV replicon) [nM] | EC50 [1, 3] [nM] | CC50 at 5 days [2] [nM] | IC50 (recombinant RSV complex) [nM] | EC50 [1, 4] [nM]
17 | COc1cc(C(=O)NCC(O)(c2cc3c(c(-c4ccc(F)c(Cl)c4)n2)OCC3(C)C)C2CC2)ccc1OC1CCNC1=O (stereo not shown) [Compound 223] | < 1000 | < 1000 | 10000 to 100000 | < 1000 | –
18 | COc1cc(C(=O)NCC(O)(c2cc(C3(N)CC3)cc(-c3ccc(F)cc3)n2)C(F)(F)F)ccc1OC[C@@H](C)O (stereo partly shown) [Compound 598] | < 1000 | < 1000 | 10000 to 100000 | < 1000 | –
19 | COc1cc(C(=O)NCC(O)(c2cc3c(c(-c4ccc(F)c(Cl)c4)n2)OCC3C)C2CC2)ccc1OCCO (stereo not shown) [Compound 308] | < 1000 | < 1000 | 10000 to 100000 | < 1000 | –
20 | COc1cc(C(=O)NCC(O)(c2ccc(OC)c(-c3ccc(F)c(Cl)c3)n2)C(F)(F)F)ccc1OCC(N)=O (stereo not shown) [Compound 240] | < 1000 | – | 10000 to 100000 | < 1000 | < 1000
21 | COc1cc(C(=O)NCC(O)(Cn2cncn2)c2ccc(OC)c(-c3ccc(F)c(Cl)c3)n2)ccc1OCCO (stereo not shown) [Compound 194] | < 1000 | < 1000 | > 100000 | < 1000 | –
22 | COc1cc(C(=O)NCC(O)(c2cc(C(C)(C)N)cc(-c3ccc(F)cc3)n2)C2CC2)ccc1OCCO (stereo not shown) [Compound 634] | < 1000 | < 1000 | > 100000 | < 1000 | –
23 | COc1cc(C(=O)NC[C@@](O)(c2cc(C(C)(C)N)cc(-c3ccc(F)cc3)n2)C(F)(F)F)ccc1OCC(N)=O [Compound 561] | < 1000 | 1000 to 50000 | > 100000 | < 10000 | –
24 | COc1cc(C(=O)NCC(O)(c2cc3c(c(-c4ccc(F)c(Cl)c4)n2)OCC3(C)C)C(F)(F)F)cc2cccnc12 (stereo not shown) [Compound 208] | < 1000 | < 1000 | 10000 to 100000 | < 1000 | –
25 | COc1cc(C(=O)NCC(O)(c2cc(C(C)(C)N)cc(-c3ccc(F)c(Cl)c3)n2)C(F)(F)F)cc2cccnc12 (stereo not shown) [Compound 321] | < 1000 | < 1000 | 10000 to 100000 | < 1000 | –
26 | COc1cc(C(=O)NC[C@](O)(c2cc(C(C)(C)N)cc(-c3ccc(F)cc3)n2)C(F)(F)F)ccc1OC1CC1 [Compound 496] | < 1000 | < 1000 | 10000 to 100000 | < 1000 | –
27 | COc1cc(C(=O)NCC(O)(c2cc(C3(C)CCNC3)cc(-c3ccc(F)cc3)n2)C(F)(F)F)ccc1OC1CC1 (stereo not shown) [Compound 507] | < 1000 | < 1000 | 10000 to 100000 | < 1000 | –
28 | COc1cc(C(=O)NCC(C)(O)c2cc(C(C)(C)N)cc(-c3ccc(F)c(Cl)c3)n2)ccc1OC1CC1 (stereo not shown) [Compound 460] | < 1000 | – | 10000 to 100000 | < 1000 | < 1000
29 | COc1cc(C(=O)NCC(O)(c2cc(C(C)(C)N)cc(-c3ccc(F)cc3)n2)C(F)(F)F)cnc1OCCO (stereo not shown) [Compound 643] | < 1000 | < 1000 | > 100000 | < 1000 | –
30 | COc1cc(C(=O)NCC(=O)c2cc3c(c(-c4ccc(F)c(C(C)F)c4)n2)OCCC3(C)C)ccc1OCCO (stereo not shown) [Compound 298] | < 1000 | < 1000 | 10000 to 100000 | < 1000 | –
31 | COc1cc(C(=O)NCC(O)(CNC(C)=O)c2ccc(OC)c(-c3ccc(F)c(Cl)c3)n2)ccc1OCCO (stereo not shown) [Compound 195] | < 1000 | < 1000 | > 100000 | < 1000 | –
